From patent publication US20250228807A1, “TRANEXAMIC CLASS ARGININE AND HISTIDINE MIMICS AS THERAPEUTIC AGENTS” (Tranexamic Technologies, LLC, priority 2022, published 2025)
Entries after “also recorded” stand apart in the source; their conditions may differ.

How the values were obtained:
[1] = system: MDA-MB 468 triple-negative breast cancer cells; assay: MTT cell viability assay; type: cell-based; conditions: MDA-MB-468, 72 h, relative to TA
Procedure: Effects of compounds on cell viability. MDA-MB 468 triple-negative breast cancer cells were plated at 6,250 cells per well in a 96-well plate and incubated overnight at 37° C. Cell viability was evaluated using the MTT (3-(4,5-dimethylthiazol-2-yl)-2,5-diphenyltetrazolium bromide) assay carried out according to manufacturer's instructions.

[2] = Aqueous solubility / preparation of solutions in PBS buffer; type: physicochemical; conditions: for solubility: concentration of solution: PBS buffer
Procedure: Chemical synthesis and solubility. TA was purchased from commercial sources and TA-NAc was prepared straightforwardly through acetylation of TA based on standard practices.
TA-R1-R4 were accessible from their corresponding amino acids through treatment with methylisothiourea hemisulfate. […] Esterification of TA-R1 to produce TA-R1OMe, a novel compound, improved the solubility for preparation of a 2% (w/v) solution in phosphate buffered saline (PBS) buffer (pH=7.4) and biological testing.
The requisite amino acids for synthesis of TA-R3/R4 required multistep synthetic approaches. Briefly, the preparation of TA-R3, a novel compound, began from cis-1,3-cyclohexanedicarboxylic acid and proceeded through eight sequential synthetic steps to afford the product as its HCl salt. Protection/deprotection of the amino group was required to facilitate purification, as was a stepwise oxidation sequence from the alcohol to the carboxylic acid. […] The approach to TA-R4, a known compound, required one additional step to produce the starting dicarboxylic acid, in this case through oxidative cleavage of norbornene. […] All the final compounds were fully characterized by ^1H nuclear magnetic resonance (NMR), ^13C NMR, and high-resolution electrospray ionization mass spectrometry (HRMS-ESI).

[3] = system: programmed death-ligand 1 (PD-L1); assay: Immunoblot analysis of treated MDA-MB-468 cells: PD-L1 expression; type: cell-based; conditions: high (2%) concentration
From the text: (§1) Biochemical evaluation of treatment of breast cancer cells with TA-R2. […] This is important because PD-L1 expression in cancer cells blocks T-cell-based immunity. So, TA-R2 would be predicted to increase anticancer immunity in immunocompetent systems. Histone acetyltransferase (HAT) enzyme assays were used to determine if TA-R2 inhibits p300 activity. […] This fits with the hypothesis that TAs act in part by inhibiting acetyltransferases such as p300/CPB that acetylate histones. No acetylation is observed in controls upon omission of H3/p300 or acetyl coenzyme A (Acetyl CoA).

recombinant p300 = biological target: T1, recombinant p300 (Homo sapiens, UniProt Q09472); assay: p300 histone acetyltransferase (HAT) enzyme assay; type: biochemical; conditions: for p300 acetylation of Histone 3 (H3) in vitro: recombinant p300, Histone H3, tritiated acetyl CoA, TA at 2%
T1 construct: purchased
T1 sequence (Q09472 whole entry, species assumed): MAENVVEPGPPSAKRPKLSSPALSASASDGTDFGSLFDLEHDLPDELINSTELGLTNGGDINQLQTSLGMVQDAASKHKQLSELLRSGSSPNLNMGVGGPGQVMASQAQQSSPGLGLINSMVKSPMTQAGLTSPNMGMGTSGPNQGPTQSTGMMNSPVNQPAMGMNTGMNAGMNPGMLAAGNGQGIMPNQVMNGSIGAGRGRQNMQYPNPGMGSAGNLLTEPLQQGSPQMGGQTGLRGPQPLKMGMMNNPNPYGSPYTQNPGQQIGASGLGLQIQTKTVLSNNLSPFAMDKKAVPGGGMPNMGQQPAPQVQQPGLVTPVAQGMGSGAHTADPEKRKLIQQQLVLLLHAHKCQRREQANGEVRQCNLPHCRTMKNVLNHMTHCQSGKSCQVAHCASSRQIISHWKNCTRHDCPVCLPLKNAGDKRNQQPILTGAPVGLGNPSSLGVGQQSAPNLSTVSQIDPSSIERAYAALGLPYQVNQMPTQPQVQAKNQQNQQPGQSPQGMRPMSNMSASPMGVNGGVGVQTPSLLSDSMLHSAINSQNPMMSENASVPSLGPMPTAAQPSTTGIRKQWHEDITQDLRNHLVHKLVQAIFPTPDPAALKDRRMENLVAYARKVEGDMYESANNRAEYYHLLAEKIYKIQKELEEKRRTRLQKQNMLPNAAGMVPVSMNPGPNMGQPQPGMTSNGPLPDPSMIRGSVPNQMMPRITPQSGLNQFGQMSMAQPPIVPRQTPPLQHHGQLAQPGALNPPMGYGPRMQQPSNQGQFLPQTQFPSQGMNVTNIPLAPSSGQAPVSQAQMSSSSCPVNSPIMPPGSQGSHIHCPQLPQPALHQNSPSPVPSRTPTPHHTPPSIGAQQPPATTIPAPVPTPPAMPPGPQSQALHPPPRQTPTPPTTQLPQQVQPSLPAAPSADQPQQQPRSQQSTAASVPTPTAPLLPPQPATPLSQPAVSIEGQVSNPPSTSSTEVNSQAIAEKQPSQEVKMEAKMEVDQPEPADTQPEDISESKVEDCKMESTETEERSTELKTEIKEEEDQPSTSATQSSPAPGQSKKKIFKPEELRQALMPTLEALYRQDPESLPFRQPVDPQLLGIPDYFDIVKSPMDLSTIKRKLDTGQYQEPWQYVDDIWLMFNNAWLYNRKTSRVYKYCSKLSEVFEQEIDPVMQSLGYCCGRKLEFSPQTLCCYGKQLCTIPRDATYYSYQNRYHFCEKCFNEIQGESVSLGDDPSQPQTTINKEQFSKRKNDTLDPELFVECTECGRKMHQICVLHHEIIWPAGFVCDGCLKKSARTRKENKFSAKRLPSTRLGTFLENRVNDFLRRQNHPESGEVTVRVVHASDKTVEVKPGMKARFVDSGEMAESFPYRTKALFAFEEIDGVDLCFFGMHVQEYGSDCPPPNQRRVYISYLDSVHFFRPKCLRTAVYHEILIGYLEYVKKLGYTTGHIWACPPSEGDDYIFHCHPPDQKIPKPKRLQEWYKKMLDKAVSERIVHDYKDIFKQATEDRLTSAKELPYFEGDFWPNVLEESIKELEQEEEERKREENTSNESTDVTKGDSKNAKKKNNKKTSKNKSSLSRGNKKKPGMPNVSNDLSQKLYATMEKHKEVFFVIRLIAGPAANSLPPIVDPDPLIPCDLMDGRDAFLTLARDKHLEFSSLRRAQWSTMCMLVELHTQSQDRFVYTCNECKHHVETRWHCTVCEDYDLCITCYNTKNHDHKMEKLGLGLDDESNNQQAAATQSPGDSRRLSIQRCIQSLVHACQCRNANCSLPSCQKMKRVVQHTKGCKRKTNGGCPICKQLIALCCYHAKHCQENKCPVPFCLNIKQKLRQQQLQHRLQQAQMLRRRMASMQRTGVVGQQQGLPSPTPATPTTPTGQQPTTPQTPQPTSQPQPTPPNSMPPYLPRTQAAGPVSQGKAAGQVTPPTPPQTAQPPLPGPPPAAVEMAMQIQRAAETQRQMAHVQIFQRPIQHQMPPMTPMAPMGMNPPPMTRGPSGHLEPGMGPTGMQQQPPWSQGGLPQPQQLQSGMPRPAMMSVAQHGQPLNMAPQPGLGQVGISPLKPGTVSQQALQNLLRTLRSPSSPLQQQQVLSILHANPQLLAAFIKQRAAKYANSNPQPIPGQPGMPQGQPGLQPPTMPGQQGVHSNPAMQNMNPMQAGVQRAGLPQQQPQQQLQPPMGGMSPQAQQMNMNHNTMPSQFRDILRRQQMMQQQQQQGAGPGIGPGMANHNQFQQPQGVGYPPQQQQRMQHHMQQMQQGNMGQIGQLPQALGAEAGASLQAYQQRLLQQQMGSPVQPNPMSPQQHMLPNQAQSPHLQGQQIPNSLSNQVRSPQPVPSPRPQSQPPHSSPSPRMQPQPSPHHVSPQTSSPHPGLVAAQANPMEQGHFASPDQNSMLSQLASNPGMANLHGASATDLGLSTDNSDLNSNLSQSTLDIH
Procedure: Inhibition of p300 acetyltransferase activity. p300 enzyme assays were carried out with TA, TA-NAc, and TA-R2 using commercially available recombinant p300, and recombinant, commercial Histone H3 and tritiated acetyl CoA as the substrates. P300 assays were performed in the presence of increasing concentrations of each compound and acetylation of […] was evaluated by scintillation counting of Histone H3 adsorbed to 1 cm×1 cm nitrocellulose squares, after extensive washing of the nitrocellulose squares with 20% trichloroacetic acid.
as §1

MYC oncogene = assay: Immunoblot analysis of treated MDA-MB-468 cells: MYC expression; type: cell-based
From the text: as §1

| Compound | fold lower IC50 than TA (cytotoxicity) [1] | aqueous solubility (in words) [2] | solubility: concentration of solution [2] | PD-L1 expression [3] | also measured |
| --- | --- | --- | --- | --- | --- |
| Cl.N=C(N)NC[C@H]1CCC[C@@H](C(=O)O)C1 (relative stereo) [TA-R3, cis-amino(((3-carboxycyclohexyl)methyl)amino)methaniminium chloride] | approximately 10 fold | insolubility; also recorded: poor aqueous solubility | ~0.1% |  |  |
| COC(=O)[C@@H]1CCC[C@H](CNC(=N)N)C1.Cl (relative stereo) [TA-R3-OMe, cis-amino(((3 (methoxycarbonyl)cyclohexyl)methyl)amino)methaniminium chloride] | approximately 10 fold |  | ca. 2% |  |  |
| N=C(N)NC[C@@H]1CC[C@H](C(=O)O)C1 (relative stereo) [TA-R4, cis-3-(guanidinomethyl)cyclopentane-1-carboxylic acid] |  | sufficient solubility | ca. 2% |  |  |
| NC[C@H]1CC[C@H](C(=O)O)CC1 [TA, Tranexamic acid, reference compound] |  |  |  | do not | p300 acetylation of Histone 3 (H3) in vitro (recombinant p300): does not affect |
| CC(=O)NCC1CCC(C(=O)[O-])CC1.[Na+] (stereo not drawn) [TA-NAc, reference compound] |  | better aqueous solubility |  | do not |  |
| N=C(N)NC[C@H]1CC[C@H](C(=O)O)CC1 [TA-R1, trans-4-guanidinomethylcyclohexanecarboxylic acid] |  | poor aqueous solubility |  |  |  |
| COC(=O)[C@H]1CC[C@H](CNC(=N)N)CC1.Cl [TA-R1-OMe, amino((((1r,4r)-4-(methoxycarbonyl)cyclohexyl)methyl)amino)methaniminium chloride] | approximately 10 fold |  |  |  | solubility: concentration of solution prepared ([2]; phosphate buffered saline (PBS) buffer (pH=7.4)): 2 % (w/v) |
| Cl.N=C(N)N[C@H]1CC[C@H](C(=O)O)CC1 [TA-R2, amino(((1r,4r)-4-carboxycyclohexyl)amino)methaniminium chloride] |  | good aqueous solubility |  | decreases programmed death-ligand 1 (PD-L1) | expression of the MYC oncogene at 0.5% (MYC oncogene; 0.5%): downregulated MYC; expression of the MYC oncogene at 2% (w/v) (MYC oncogene; 2% (w/v), compared with TA): downregulated expression of the MYC oncogene; expression of the MYC oncogene (MYC oncogene; compared with TA and TA-NAc at the same concentrations): decreases expression of the MYC oncogene to a greater extent than TA or NAc-TA; histone acetylation at 2% (w/v) compared with TA (recombinant p300; 2% (w/v)): reduced histone acetylation to a greater extent than TA; p300 acetylation of Histone 3 (H3) in vitro (recombinant p300): decreases histone acetylation more strongly than the other two compounds |
